Assay results: US9232796B2, “Herbicidal compositions comprising 4-amino-3-chloro-5-fluoro-6-(4-chloro-2-fluoro-3-methoxyphenyl) pyridine-2-carboxylic acid or a derivative thereof and acetyl-CoA carboxylase (ACCase) inhibitors” (DOW AGROSCIENCES LLC, priority 2012, dated 2016)

How the values were obtained:
CYPES = test: Example I postemergence foliar-applied, greenhouse, direct seeded rice weeds; format: in vivo, Cyperus esculentus L.
From the text: Seeds or nutlets of the desired test plant species were planted in a soil matrix prepared by mixing a loam or sandy loam soil (e.g., 28.6 percent silt, 18.8 percent clay, and 52.6 percent sand, with a pH of about 5.8 and an organic matter content of about 1.8 percent) and calcareous grit in an 80 to 20 ratio. The soil matrix was contained in plastic pots with a volume of 1 quart and a surface area of 83.6 square centimeters (cm^2). When required to ensure good germination and healthy plants, a fungicide treatment and/or other chemical or physical treatment was applied. The plants were grown for 8-22 days in a greenhouse with an approximate 14 hr. photoperiod which was maintained at about 29° C. during the day and 26° C. during the night. Nutrients (Peters Excel® 15-5-15 5-Ca 2-Mg and iron chelate) were applied in the irrigation solution as needed and water was added on a regular basis. Supplemental lighting was provided with overhead metal halide 1000-Watt lamps as necessary. The plants were employed for testing when they reached the first through fourth true leaf stage.
Treatments consisted of the acid or esters of 4-amino-3-chloro-5-fluoro-6-(4-chloro-2-fluoro-3-methoxy-phenyl)pyridine-2-carboxylic acid (Compound A), each formulated as an SC (suspension concentrate), and various herbicidal components alone and in combination.
Other herbicidal components were applied on an acid equivalent (ae) or active ingredient (ai) basis and included acetyl coA carboxylase (ACCase)-inhibiting herbicides (cyclohexanedione and aryloxyphenoxypropionate chemical classes) cyhalofop-butyl formulated as Clincher® SF (285 gr ai/L EC), diclofop-methyl formulated as Hoelon® 3EC, fenoxaprop-p-ethyl+isoxadifen-ethyl formulated as RiceStar® HT (0.58 lb./gal EC), fenoxaprop-p-ethyl+mefenpyr diethyl formulated as Puma® IEC, metamifop formulated as Metamifop EC, haloxyfop-methyl formulated as Gallant Super®, fluazifop-p-butyl formulated as Fusilade® DX, quizalofop-p-ethyl formulated as Assure® II, profoxydim formulated as Aura® 20EC, clethodim applied as Intensity®, sethoxydim formulated as Poast®, and tralkoxydim formulated as Achieve®.
Treatment requirements were calculated based upon the rates being tested, the concentration of active ingredient or acid equivalent in the formulation, and a 12 mL application volume at a rate of 187 L/ha.
For treatments comprised of formulated compounds, measured amounts of compounds were placed individually in 25 mL glass vials and diluted in a volume of 1.25% (v/v) Agri-Dex® crop oil concentrated to obtain 12× stock solutions. […] Application solutions were prepared by adding an appropriate amount of each stock solution (e.g., 1 mL) and diluted to the appropriate final concentrations with the addition of 10 mL of an aqueous mixture of 1.25% (v/v) crop oil concentrate so that the final spray solutions contained 1.25+/−0.05% (v/v) crop oil concentrate.
All stock solutions and applications solutions were visually inspected for compound compatibility prior to application. Spray solutions were applied to the plant material with an overhead Mandel track sprayer equipped with a 8002E nozzles calibrated to deliver 187 L/ha over an application area of 0.503 m^2 at a spray height of 18 to 20 inches (46 to 50 cm) above average plant canopy height. Control plants were sprayed in the same manner with the solvent blank.
The treated plants and control plants were placed in a greenhouse as described above and watered by sub-irrigation to prevent wash-off of the test compounds. After approximately 3 weeks, the condition of the test plants as compared with that of the untreated plants was determined visually and scored on a scale of 0 to 100 percent where 0 corresponds to no injury or growth inhibition and 100 corresponds to complete kill. […]

LEFCH = test: Example V (second) postemergence foliar-applied ternary mixtures, greenhouse, direct seeded rice weeds; format: in vivo, Leptochloa chinensis (L.) Nees
Procedure: The treated plants and control plants were placed in a greenhouse as described above and watered by sub-irrigation to prevent wash-off of the test compounds. After approximately 3 weeks, the condition of the test plants as compared with that of the untreated plants was determined visually and scored on a scale of 0 to 100 percent where 0 corresponds to no injury or growth inhibition and 100 corresponds to complete kill.
Colby's equation was used to determine the herbicidal effects expected from the mixtures (Colby, S. R. 1967. Calculation of the synergistic and antagonistic response of herbicide combinations. Weeds 15:20-22.).
The following equation was used to calculate the expected activity of mixtures containing three active ingredients, A, B, and C: Expected=A+B+C−((A×B+A×C+B×C)/100)+(A×B×C/10000)

ECHSS = test: Example V post-emergence field trials in direct-seeded rice; format: in vivo, multiple Echinochloa species; settings: foliar, field trial Italy
Procedure: Multiple field trials were conducted under commercial grower field conditions in Tolima, Colombia; Thessaloniki, Greece; Bianze and Copiano, Italy; and Humphrey, Ark., USA. Trials sites were located in commercially grown fields of direct-seeded rice (Oryza sativa) using standard herbicide small plot research methodology. Plots varied from 2 to 3 meter (m)×5 to 8 m (width×length) with 4 replicates per treatment. The rice crop was grown using normal cultural practices for fertilization, seeding, watering, flooding and maintenance to ensure good growth of the crop and the weeds.
All treatments in the field trials were applied using a backpack compressed air/gas sprayer with flat fan nozzles (80° or 110°) calibrated to apply 187 to 300 L/ha spray volume at approximately 200-400 kPa nozzle pressure. Commercially available products of cyhalofop-butyl (Clincher 180EC, Clincher 200EC, and Clincher SF (285 gr ai/L EC)) were mixed in water at appropriate formulated product rates to achieve the desired rates based on a unit area of application (hectare) to achieve the desired rates as shown. Treatments were rate at 19 to 58 days after application (DAA) as compared to the untreated control plants. Visual weed control was scored on a scale of 0 to 100 percent where 0 corresponds to no injury and 100 corresponds to complete kill. […]

Row | SMILES | Visual Weed Control (%) - 20 DAA CYPES Obs (CYPES; 4.38 gae/ha) | Visual Weed Control (%) - 22 DAA CYPES Obs (CYPES; 4.38 gae/ha) | Visual Weed Control (%) - 20 DAA CYPES Obs (CYPES; 8.75 gae/ha) | Visual Weed Control (%) - 22 DAA CYPES Obs (CYPES; 8.75 gae/ha) | Visual Weed Control (%) - 22 DAA LEFCH Obs (LEFCH; 8 gae/ha) | Visual Weed Control (%) - 21 DAA LEFCH Obs (LEFCH; 16 gae/ha) | Visual Weed Control (%) - 20 DAA CYPES Obs (CYPES; 8 gae/ha) | Visual Weed Control (%) - 20 DAA CYPES Obs (CYPES; 16 gae/ha) | Visual Weed Control (%) - 20 DAA CYPES Obs (CYPES; 17.5 gae/ha) | Visual Weed Control (%) - 55-58 DAA ECHSS Obs (ECHSS; 24 gae/ha) | Visual Weed Control (%) - 21 DAA LEFCH Obs (LEFCH; 35 gai/ha) | Visual Weed Control (%) - 22 DAA LEFCH Obs (LEFCH; 35 gai/ha) | Visual Weed Control (%) - 55-58 DAA ECHSS Obs (ECHSS; 300 gai/ha)
1 | COc1c(Cl)ccc(-c2nc(C(=O)O)c(Cl)c(N)c2F)c1F [Compound A Acid, 4-amino-3-chloro-6-(4-chloro-2-fluoro-3-methoxyphenyl)-5-fluoropyridine-2-carboxylic acid] | 30% | 50% | 70% | 75% | – | – | – | – | – | – | – | – | –
2 | COc1c(Cl)ccc(-c2nc(C(=O)OCc3ccccc3)c(Cl)c(N)c2F)c1F [Compound A Benzyl Ester, benzyl ester of 4-amino-3-chloro-5-fluoro-6-(4-chloro-2-fluoro-3-methoxy-phenyl)pyridine-2-carboxylic acid] | 70% | – | 80% | – | 28% | 25% | 0% | 75% | 95% | 40% | – | – | –
3 | CCCCOC(=O)[C@@H](C)Oc1ccc(Oc2ccc(C#N)cc2F)cc1 [Cyhalofop-butyl, butyl(2R)-2-[4-(4-cyano-2-fluorophenoxy)phenoxy]propanoate, reference compound] | – | – | – | – | – | – | – | – | – | – | 68% | 70% | 37%
